ChEMBL document CHEMBL3864192, “Discovery and Optimization of Two Eis Inhibitor Families as Kanamycin Adjuvants against Drug-Resistant M. tuberculosis” (ACS Med Chem Lett, 2016)
Calls of active or inactive are those of the source. No cut-off for these calls is given here.

How the values were obtained:
N-acetyltransferase Eis = biological target: T1, N-acetyltransferase Eis (Mycobacterium tuberculosis (strain ATCC 25618 / H37Rv), UniProt P9WFK7); experiment: Inhibition of Mycobacterium tuberculosis H37Rv Eis expressed in Escherichia coli BL21(DE3) using Acetyl-CoA as substrate preincubated for 10 mins followed by substrate addition measured every 30 sec for 10 mins
T1 sequence (P9WFK7 whole entry): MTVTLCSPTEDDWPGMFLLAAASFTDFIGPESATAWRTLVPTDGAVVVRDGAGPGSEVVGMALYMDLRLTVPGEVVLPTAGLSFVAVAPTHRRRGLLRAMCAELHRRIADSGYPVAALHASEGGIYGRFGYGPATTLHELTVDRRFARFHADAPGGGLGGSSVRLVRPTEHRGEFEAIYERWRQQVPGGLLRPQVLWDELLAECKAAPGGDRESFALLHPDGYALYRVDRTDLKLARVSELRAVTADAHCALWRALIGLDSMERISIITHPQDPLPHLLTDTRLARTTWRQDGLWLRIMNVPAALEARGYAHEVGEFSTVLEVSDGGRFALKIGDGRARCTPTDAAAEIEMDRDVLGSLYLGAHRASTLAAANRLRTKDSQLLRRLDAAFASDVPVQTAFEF

[1] = test system: Mycobacterium tuberculosis; experiment: Inhibition of Mycobacterium tuberculosis K204 Eis assessed as kanamycin MIC at 100 uM preincubated for 24 hrs followed by kanamycin addition measured after 6 days by Alamar blue assay (Rvb >= 10 ug/ml)
[2] = test system: Mycobacterium tuberculosis; experiment: Potentiation of kanamycin induced-antimicrobial activity against Mycobacterium tuberculosis H37Rv at 100 uM preincubated for 24 hrs followed by kanamycin addition measured after 6 days by Alamar blue assay; format: functional
[3] = test system: Mycobacterium tuberculosis; experiment: Inhibition of Mycobacterium tuberculosis K204 Eis assessed as kanamycin MIC at 52.6 uM preincubated for 24 hrs followed by kanamycin addition measured after 6 days by Alamar blue assay (Rvb >= 10 ug/ml)
[4] = test system: Mycobacterium tuberculosis; experiment: Potentiation of kanamycin induced-antimicrobial activity against Mycobacterium tuberculosis H37Rv at 52.6 uM preincubated for 24 hrs followed by kanamycin addition measured after 6 days by Alamar blue assay; format: functional
[5] = biological target: T2, N-acetyltransferase Eis (Mycobacterium tuberculosis (strain ATCC 25618 / H37Rv)) (UniProt P9WFK7); experiment: Inhibition of Mycobacterium tuberculosis H37Rv Eis expressed in Escherichia coli BL21(DE3) at 20 uM using Acetyl-CoA as substrate after 5 mins by HTS assay
T2 sequence (whole entry): T1 sequence (P9WFK7 whole entry)

[6] = test system: Mycobacterium tuberculosis; experiment: Potentiation of kanamycin induced-antimicrobial activity against Mycobacterium tuberculosis H37Rv at 8.9 uM preincubated for 24 hrs followed by kanamycin addition measured after 6 days by Alamar blue assay; format: functional
[7] = test system: Mycobacterium tuberculosis; experiment: Inhibition of Mycobacterium tuberculosis K204 Eis assessed as kanamycin MIC at 8.9 uM preincubated for 24 hrs followed by kanamycin addition measured after 6 days by Alamar blue assay (Rvb >= 10 ug/ml)
[8] = test system: Mycobacterium tuberculosis; experiment: Potentiation of kanamycin induced-antimicrobial activity against Mycobacterium tuberculosis H37Rv at 1.5 uM preincubated for 24 hrs followed by kanamycin addition measured after 6 days by Alamar blue assay; format: functional
[9] = test system: Mycobacterium tuberculosis; experiment: Inhibition of Mycobacterium tuberculosis K204 Eis assessed as kanamycin MIC at 1.5 uM preincubated for 24 hrs followed by kanamycin addition measured after 6 days by Alamar blue assay (Rvb >= 10 ug/ml)
[10] = test system: Mycobacterium tuberculosis; experiment: Inhibition of Mycobacterium tuberculosis K204 Eis assessed as kanamycin MIC at 33.9 uM preincubated for 24 hrs followed by kanamycin addition measured after 6 days by Alamar blue assay (Rvb >= 10 ug/ml)
[11] = test system: Mycobacterium tuberculosis; experiment: Potentiation of kanamycin induced-antimicrobial activity against Mycobacterium tuberculosis H37Rv at 33.9 uM preincubated for 24 hrs followed by kanamycin addition measured after 6 days by Alamar blue assay; format: functional
[12] = test system: Mycobacterium tuberculosis; experiment: Potentiation of kanamycin induced-antimicrobial activity against Mycobacterium tuberculosis H37Rv at 64.5 uM preincubated for 24 hrs followed by kanamycin addition measured after 6 days by Alamar blue assay; format: functional
[13] = test system: Mycobacterium tuberculosis; experiment: Inhibition of Mycobacterium tuberculosis K204 Eis assessed as kanamycin MIC at 64.5 uM preincubated for 24 hrs followed by kanamycin addition measured after 6 days by Alamar blue assay (Rvb >= 10 ug/ml)
[14] = test system: Mycobacterium tuberculosis; experiment: Inhibition of Mycobacterium tuberculosis K204 Eis assessed as kanamycin MIC at 54.2 uM preincubated for 24 hrs followed by kanamycin addition measured after 6 days by Alamar blue assay (Rvb >= 10 ug/ml)
[15] = test system: Mycobacterium tuberculosis; experiment: Potentiation of kanamycin induced-antimicrobial activity against Mycobacterium tuberculosis H37Rv at 54.2 uM preincubated for 24 hrs followed by kanamycin addition measured after 6 days by Alamar blue assay; format: functional
[16] = test system: Mycobacterium tuberculosis; experiment: Potentiation of kanamycin induced-antimicrobial activity against Mycobacterium tuberculosis H37Rv at 32.6 uM preincubated for 24 hrs followed by kanamycin addition measured after 6 days by Alamar blue assay; format: functional
[17] = test system: Mycobacterium tuberculosis; experiment: Inhibition of Mycobacterium tuberculosis K204 Eis assessed as kanamycin MIC at 32.6 uM preincubated for 24 hrs followed by kanamycin addition measured after 6 days by Alamar blue assay (Rvb >= 10 ug/ml)
[18] = test system: Mycobacterium tuberculosis; experiment: Inhibition of Mycobacterium tuberculosis K204 Eis assessed as kanamycin MIC at 29.7 uM preincubated for 24 hrs followed by kanamycin addition measured after 6 days by Alamar blue assay (Rvb >= 10 ug/ml)
[19] = test system: Mycobacterium tuberculosis; experiment: Potentiation of kanamycin induced-antimicrobial activity against Mycobacterium tuberculosis H37Rv at 29.7 uM preincubated for 24 hrs followed by kanamycin addition measured after 6 days by Alamar blue assay; format: functional
[20] = test system: Mycobacterium tuberculosis; experiment: Potentiation of kanamycin induced-antimicrobial activity against Mycobacterium tuberculosis H37Rv at 25.1 uM preincubated for 24 hrs followed by kanamycin addition measured after 6 days by Alamar blue assay; format: functional
[21] = test system: Mycobacterium tuberculosis; experiment: Inhibition of Mycobacterium tuberculosis K204 Eis assessed as kanamycin MIC at 25.1 uM preincubated for 24 hrs followed by kanamycin addition measured after 6 days by Alamar blue assay (Rvb >= 10 ug/ml)
[22] = test system: Mycobacterium tuberculosis; experiment: Inhibition of Mycobacterium tuberculosis K204 Eis assessed as kanamycin MIC at 15.5 uM preincubated for 24 hrs followed by kanamycin addition measured after 6 days by Alamar blue assay (Rvb >= 10 ug/ml)
[23] = test system: Mycobacterium tuberculosis; experiment: Potentiation of kanamycin induced-antimicrobial activity against Mycobacterium tuberculosis H37Rv at 15.5 uM preincubated for 24 hrs followed by kanamycin addition measured after 6 days by Alamar blue assay; format: functional

Question: `CCC(=O)Cn1c(C(=O)OC)cc2occc21` was tested. Which IC50 (N-acetyltransferase Eis) did it give?
Answer: Its IC50 is greater than 200 µM.

Question: And the MIC [1]?
Answer: The MIC was greater than 10 µg/mL.

Question: What about the MIC [2] of the same compound?
Answer: Its MIC is no more than 1.25 µg/mL.

Question: Which results are given for `COC(=O)c1cc2occc2n1CC(=O)c1cccc(Br)c1`?
Answer: IC50 (N-acetyltransferase Eis): 0.5 µM; MIC [3]: > 10 µg/mL; MIC [4]: ≤ 1.25 µg/mL

Question: With `O=C(CN1C(=O)C2(OCCO2)c2ccccc21)c1ccc(F)cc1` as the compound, how does the IC50 (N-acetyltransferase Eis) read?
Answer: The IC50 was 0.09 µM.

Question: And the inhibition [5]?
Answer: Its inhibition is “Active”.

Question: What about the MIC [6] of the same compound?
Answer: Its MIC is no more than 1.25 µg/mL.

Question: And the MIC [7]?
Answer: Its MIC is 5 µg/mL.

Question: Which results are given for `COC(=O)c1cc2occc2n1CC(=O)c1ccccc1`?
Answer: MIC [1]: 5 to 10 µg/mL; inhibition [5]: Active; MIC [2]: ≤ 1.25 µg/mL

Question: What does the source list for `O=C(CN1C(=O)C2(OCCO2)c2ccccc21)c1cccc(Cl)c1`?
Answer: MIC [8]: ≤ 1.25 µg/mL; MIC [9]: > 10 µg/mL

Question: With `O=C(CN1C(=O)C2(OCCO2)c2ccccc21)c1ccc2ccccc2c1` as the compound, how does the MIC [1] read?
Answer: The MIC was 10 µg/mL.

Question: What about the MIC [2] of the same compound?
Answer: Its MIC is no more than 1.25 µg/mL.

Question: Which MIC [1] does the source give for `Cc1ccc(C(=O)CN2C(=O)C3(OCCO3)c3ccccc32)cc1` here?
Answer: Its MIC is 5 to 10 µg/mL.

Question: What about the MIC [2] of the same compound?
Answer: Its MIC is no more than 1.25 µg/mL.

Question: Which results are given for `COc1cccc(C(=O)CN2C(=O)C3(OCCO3)c3ccccc32)c1`?
Answer: MIC [1]: > 10 µg/mL; MIC [2]: ≤ 1.25 µg/mL

Question: What does the source list for `COC(=O)c1cc2occc2n1CC(=O)c1ccc(F)cc1`?
Answer: MIC [10]: 10 µg/mL; IC50 (N-acetyltransferase Eis): 0.3 µM; MIC [11]: ≤ 1.25 µg/mL

Question: `CC(C)(C)C(=O)CN1C(=O)C2(OCCO2)c2ccccc21` was tested. Which IC50 (N-acetyltransferase Eis) did it give?
Answer: Its IC50 is greater than 200 µM.

Question: What about the MIC [1] of the same compound?
Answer: The MIC was greater than 10 µg/mL.

Question: And the MIC [2]?
Answer: Its MIC is no more than 1.25 µg/mL.

Question: How did the MIC [1] turn out when `COC(=O)c1cc2occc2n1CC(=O)c1ccc(C)cc1` was run?
Answer: The MIC was 5 to 10 µg/mL.

Question: What about the MIC [2] of the same compound?
Answer: The MIC was no more than 1.25 µg/mL.

Question: With `O=C(CN1C(=O)C2(OCCO2)c2ccccc21)c1cccc([N+](=O)[O-])c1` as the compound, how does the MIC [1] read?
Answer: Its MIC is 5 to 10 µg/mL.

Question: What about the MIC [2] of the same compound?
Answer: Its MIC is no more than 1.25 µg/mL.

Question: How did the IC50 (N-acetyltransferase Eis) turn out when `CCC(=O)CN1C(=O)C2(OCCO2)c2ccccc21` was run?
Answer: Its IC50 is greater than 200 µM.

Question: What about the MIC [1] of the same compound?
Answer: Its MIC is greater than 10 µg/mL.

Question: What about the MIC [2] of the same compound?
Answer: The MIC was no more than 1.25 µg/mL.

Question: Which results are given for `O=C(CN1C(=O)C2(OCCO2)c2ccccc21)c1ccc(Br)cc1`?
Answer: IC50 (N-acetyltransferase Eis): > 200 µM; MIC [1]: > 10 µg/mL; inhibition [5]: Active; MIC [2]: ≤ 1.25 µg/mL

Question: `COC(=O)c1cc2occc2n1CC(=O)c1ccccc1F` was tested. Which MIC [1] did it give?
Answer: The MIC was 10 µg/mL.

Question: And the MIC [2]?
Answer: The MIC was no more than 1.25 µg/mL.

Question: Which results are given for `COC(=O)c1cc2occc2n1CC(=O)c1ccc(Cl)cc1`?
Answer: MIC [12]: ≤ 1.25 µg/mL; MIC [13]: > 10 µg/mL

Question: For `COC(=O)c1cc2occc2n1CC(=O)c1cccc(OC)c1`, which IC50 (N-acetyltransferase Eis) is on record?
Answer: Its IC50 is greater than 200 µM.

Question: What about the MIC [1] of the same compound?
Answer: Its MIC is greater than 10 µg/mL.

Question: And the MIC [2]?
Answer: Its MIC is no more than 1.25 µg/mL.

Question: What does the source list for `COC(=O)c1cc2occc2n1CC(=O)c1ccc2ccccc2c1`?
Answer: MIC [1]: 10 µg/mL; MIC [2]: ≤ 1.25 µg/mL

Question: What does the source list for `O=C(CN1C(=O)C2(OCCO2)c2ccccc21)c1cccc(Br)c1`?
Answer: MIC [14]: 5 to 10 µg/mL; MIC [15]: ≤ 1.25 µg/mL

Question: What does the source list for `COC(=O)c1cc2occc2n1CC(=O)c1ccc(Br)cc1`?
Answer: MIC [1]: > 10 µg/mL; MIC [2]: ≤ 1.25 µg/mL

Question: Which IC50 (N-acetyltransferase Eis) does the source give for `O=C(CN1C(=O)C2(OCCO2)c2ccccc21)c1ccccc1` here?
Answer: Its IC50 is 0.33 µM.

Question: What about the MIC [16] of the same compound?
Answer: Its MIC is no more than 1.25 µg/mL.

Question: And the MIC [17]?
Answer: The MIC was 5 µg/mL.

Question: Which MIC [18] does the source give for `O=C(CN1C(=O)C2(OCCO2)c2ccccc21)c1cccc(F)c1` here?
Answer: Its MIC is 2.5 to 5 µg/mL.

Question: And the MIC [19]?
Answer: Its MIC is no more than 1.25 µg/mL.

Question: With `COC(=O)c1cc2occc2n1CC(=O)c1cccc(Cl)c1` as the compound, how does the MIC [20] read?
Answer: The MIC was no more than 1.25 µg/mL.

Question: And the MIC [21]?
Answer: The MIC was greater than 10 µg/mL.

Question: What does the source list for `COC(=O)c1cc2occc2n1CC(=O)c1cccc(F)c1`?
Answer: MIC [22]: 10 µg/mL; MIC [23]: ≤ 1.25 µg/mL

Question: What does the source list for `O=C(CN1C(=O)C2(OCCO2)c2ccccc21)c1ccc(Cl)cc1`?
Answer: IC50 (N-acetyltransferase Eis): 2.2 µM; MIC [1]: 5 to 10 µg/mL; inhibition [5]: Active; MIC [2]: ≤ 1.25 µg/mL

Question: With `COC(=O)c1cc2occc2n1CC(=O)C(C)(C)C` as the compound, how does the IC50 (N-acetyltransferase Eis) read?
Answer: The IC50 was greater than 200 µM.

Question: What about the MIC [1] of the same compound?
Answer: The MIC was greater than 10 µg/mL.

Question: And the MIC [2]?
Answer: Its MIC is no more than 1.25 µg/mL.

Question: How did the MIC [1] turn out when `O=C(CN1C(=O)C2(OCCO2)c2ccccc21)c1ccccc1F` was run?
Answer: Its MIC is 10 µg/mL.

Question: What about the MIC [2] of the same compound?
Answer: The MIC was no more than 1.25 µg/mL.
